Measurements reported in the kinase profiling compilation of Christmann-Franck et al. (2016).
Values joined by “and” are separate entries in the source; they are usually repeats but may differ in a detail not shown here. Equal values may be shown once.

Key:
Experiment in all cases: radiometric filter-binding kinase assay, Kinase HotSpot
Details in all cases: compound 0.5 µM; ATP 10 µM
CSK (human) = CSK (human) (UniProt P41240)
CDK4 CCND3 (human) = CDK4 CCND3 (human) (UniProt P30281+P11802)
STK4 (human) = STK4 (human) (UniProt Q13043)
ACVRL1 (human) = ACVRL1 (human) (UniProt P37023)
TAOK1 (human) = TAOK1 (human) (UniProt Q7L7X3)
MAP3K9 (human) = MAP3K9 (human) (UniProt P80192)
Chain of MAP3K9 (human) (P80192 whole entry, looked up): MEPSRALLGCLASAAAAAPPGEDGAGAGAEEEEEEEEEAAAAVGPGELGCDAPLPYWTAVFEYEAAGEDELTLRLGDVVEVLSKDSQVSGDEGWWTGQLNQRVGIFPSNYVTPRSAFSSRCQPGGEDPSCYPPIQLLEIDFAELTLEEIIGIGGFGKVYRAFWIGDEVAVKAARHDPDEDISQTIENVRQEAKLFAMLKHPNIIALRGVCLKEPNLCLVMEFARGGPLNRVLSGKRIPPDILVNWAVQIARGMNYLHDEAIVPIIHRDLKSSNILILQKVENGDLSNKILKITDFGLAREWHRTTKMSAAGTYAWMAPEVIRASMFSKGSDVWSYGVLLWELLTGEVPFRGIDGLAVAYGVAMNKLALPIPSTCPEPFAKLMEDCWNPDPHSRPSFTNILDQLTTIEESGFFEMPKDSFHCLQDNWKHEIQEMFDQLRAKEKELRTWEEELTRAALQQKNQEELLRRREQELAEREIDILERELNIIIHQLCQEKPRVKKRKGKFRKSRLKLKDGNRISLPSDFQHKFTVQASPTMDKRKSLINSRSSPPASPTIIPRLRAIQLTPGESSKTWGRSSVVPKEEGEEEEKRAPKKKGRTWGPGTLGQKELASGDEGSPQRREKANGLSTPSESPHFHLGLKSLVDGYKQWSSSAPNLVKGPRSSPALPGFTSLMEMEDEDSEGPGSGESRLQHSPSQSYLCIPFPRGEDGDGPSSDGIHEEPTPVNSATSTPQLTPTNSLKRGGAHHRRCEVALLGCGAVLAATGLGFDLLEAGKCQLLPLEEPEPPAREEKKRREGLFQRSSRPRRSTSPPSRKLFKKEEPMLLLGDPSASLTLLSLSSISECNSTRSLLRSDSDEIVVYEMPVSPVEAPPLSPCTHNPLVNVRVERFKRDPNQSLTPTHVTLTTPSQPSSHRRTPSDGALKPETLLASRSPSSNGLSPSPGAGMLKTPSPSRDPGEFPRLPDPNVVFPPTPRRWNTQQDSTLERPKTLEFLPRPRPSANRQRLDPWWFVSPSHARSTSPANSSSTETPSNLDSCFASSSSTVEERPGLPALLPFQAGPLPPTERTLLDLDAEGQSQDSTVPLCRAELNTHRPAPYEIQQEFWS

PTK2B (human) = PTK2B (human) (UniProt Q14289)
BMX (human) = BMX (human) (UniProt P51813)
NEK3 (human) = NEK3 (human) (UniProt P51956)
IKBKE (human) = IKBKE (human) (UniProt Q14164)
CDK1 CCNA2 (human) = CDK1 CCNA2 (human) (UniProt P06493+P20248)
Chain of CDK1 CCNA2 (human) (P06493 whole entry, looked up): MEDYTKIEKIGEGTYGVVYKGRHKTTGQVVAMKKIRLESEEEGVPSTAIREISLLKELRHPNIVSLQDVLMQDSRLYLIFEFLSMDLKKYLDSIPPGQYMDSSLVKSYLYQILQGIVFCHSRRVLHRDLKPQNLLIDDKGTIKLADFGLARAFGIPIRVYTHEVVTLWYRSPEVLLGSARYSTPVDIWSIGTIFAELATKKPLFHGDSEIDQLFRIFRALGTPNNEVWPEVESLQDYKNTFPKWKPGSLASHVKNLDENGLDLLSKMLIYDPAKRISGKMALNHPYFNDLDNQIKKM
Chain of CDK1 CCNA2 (human) (P20248 whole entry, looked up): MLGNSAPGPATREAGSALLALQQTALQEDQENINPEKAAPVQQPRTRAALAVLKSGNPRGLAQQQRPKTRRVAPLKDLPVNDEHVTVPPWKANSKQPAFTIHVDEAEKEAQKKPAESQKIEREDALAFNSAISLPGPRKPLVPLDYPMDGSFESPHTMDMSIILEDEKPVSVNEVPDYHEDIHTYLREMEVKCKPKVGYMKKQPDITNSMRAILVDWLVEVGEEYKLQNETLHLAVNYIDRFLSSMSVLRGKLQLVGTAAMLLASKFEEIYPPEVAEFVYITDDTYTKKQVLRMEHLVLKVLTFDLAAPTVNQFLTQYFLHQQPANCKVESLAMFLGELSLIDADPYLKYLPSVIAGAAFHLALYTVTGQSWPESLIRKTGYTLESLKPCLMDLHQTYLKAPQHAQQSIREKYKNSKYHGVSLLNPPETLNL

MAP3K3 (human) = MAP3K3 (human) (UniProt Q99759)
Chain of MAP3K3 (human) (Q99759 whole entry, looked up): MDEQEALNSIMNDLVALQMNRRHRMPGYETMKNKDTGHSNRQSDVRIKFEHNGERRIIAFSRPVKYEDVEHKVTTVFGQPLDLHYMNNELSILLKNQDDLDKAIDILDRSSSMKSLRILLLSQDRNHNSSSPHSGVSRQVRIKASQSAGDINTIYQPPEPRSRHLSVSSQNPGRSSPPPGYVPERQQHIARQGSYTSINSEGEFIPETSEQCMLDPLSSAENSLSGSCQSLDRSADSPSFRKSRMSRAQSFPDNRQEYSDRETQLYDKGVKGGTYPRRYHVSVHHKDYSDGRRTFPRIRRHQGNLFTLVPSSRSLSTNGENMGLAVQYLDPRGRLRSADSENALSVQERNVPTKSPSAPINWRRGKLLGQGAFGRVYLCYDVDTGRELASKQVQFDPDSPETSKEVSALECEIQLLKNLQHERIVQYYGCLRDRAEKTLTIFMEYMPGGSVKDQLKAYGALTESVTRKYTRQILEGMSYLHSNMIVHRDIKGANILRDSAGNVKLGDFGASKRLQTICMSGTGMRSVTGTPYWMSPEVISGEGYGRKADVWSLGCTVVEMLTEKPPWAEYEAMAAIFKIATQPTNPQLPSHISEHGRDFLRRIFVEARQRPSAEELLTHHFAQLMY

AURKC (human) = AURKC (human) (UniProt Q9UQB9)
PHKG2 (human) = PHKG2 (human) (UniProt P15735)
STK11 (human) = STK11 (human) (UniProt Q15831)
DAPK2 (human) = DAPK2 (human) (UniProt Q9UIK4)
Chain of DAPK2 (human) (Q9UIK4 whole entry, looked up): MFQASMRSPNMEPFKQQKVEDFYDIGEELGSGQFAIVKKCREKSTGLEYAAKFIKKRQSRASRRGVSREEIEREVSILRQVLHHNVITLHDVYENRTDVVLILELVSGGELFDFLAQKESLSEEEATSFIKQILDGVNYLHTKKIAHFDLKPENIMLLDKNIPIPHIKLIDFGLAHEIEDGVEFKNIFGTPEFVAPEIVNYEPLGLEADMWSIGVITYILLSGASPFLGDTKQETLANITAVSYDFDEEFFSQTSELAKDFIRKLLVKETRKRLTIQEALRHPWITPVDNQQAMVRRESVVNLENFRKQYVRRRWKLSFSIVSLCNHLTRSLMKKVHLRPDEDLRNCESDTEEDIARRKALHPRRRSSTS

DYRK4 (human) = DYRK4 (human) (UniProt Q9NR20)
STK25 (human) = STK25 (human) (UniProt O00506)
Chain of STK25 (human) (O00506 whole entry, looked up): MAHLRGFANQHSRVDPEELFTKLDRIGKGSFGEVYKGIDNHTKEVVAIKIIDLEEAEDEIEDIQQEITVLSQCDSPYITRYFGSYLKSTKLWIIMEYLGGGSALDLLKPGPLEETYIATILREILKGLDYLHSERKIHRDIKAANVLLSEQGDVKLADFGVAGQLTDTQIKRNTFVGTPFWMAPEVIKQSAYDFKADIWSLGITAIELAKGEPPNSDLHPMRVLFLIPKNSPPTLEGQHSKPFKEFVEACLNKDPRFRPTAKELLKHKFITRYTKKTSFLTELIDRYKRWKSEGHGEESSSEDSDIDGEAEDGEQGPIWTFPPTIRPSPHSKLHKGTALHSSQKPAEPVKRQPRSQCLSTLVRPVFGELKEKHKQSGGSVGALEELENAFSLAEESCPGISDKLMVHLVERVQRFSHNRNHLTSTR

STK10 (human) = STK10 (human) (UniProt O94804)
EPHA5 (human) = EPHA5 (human) (UniProt P54756)
NUAK2 (human) = NUAK2 (human) (UniProt Q9H093)
PAK7 (human) = PAK7 (human) (UniProt Q9P286)
DCLK2 (human) = DCLK2 (human) (UniProt Q8N568)
Chain of DCLK2 (human) (Q8N568 whole entry, looked up): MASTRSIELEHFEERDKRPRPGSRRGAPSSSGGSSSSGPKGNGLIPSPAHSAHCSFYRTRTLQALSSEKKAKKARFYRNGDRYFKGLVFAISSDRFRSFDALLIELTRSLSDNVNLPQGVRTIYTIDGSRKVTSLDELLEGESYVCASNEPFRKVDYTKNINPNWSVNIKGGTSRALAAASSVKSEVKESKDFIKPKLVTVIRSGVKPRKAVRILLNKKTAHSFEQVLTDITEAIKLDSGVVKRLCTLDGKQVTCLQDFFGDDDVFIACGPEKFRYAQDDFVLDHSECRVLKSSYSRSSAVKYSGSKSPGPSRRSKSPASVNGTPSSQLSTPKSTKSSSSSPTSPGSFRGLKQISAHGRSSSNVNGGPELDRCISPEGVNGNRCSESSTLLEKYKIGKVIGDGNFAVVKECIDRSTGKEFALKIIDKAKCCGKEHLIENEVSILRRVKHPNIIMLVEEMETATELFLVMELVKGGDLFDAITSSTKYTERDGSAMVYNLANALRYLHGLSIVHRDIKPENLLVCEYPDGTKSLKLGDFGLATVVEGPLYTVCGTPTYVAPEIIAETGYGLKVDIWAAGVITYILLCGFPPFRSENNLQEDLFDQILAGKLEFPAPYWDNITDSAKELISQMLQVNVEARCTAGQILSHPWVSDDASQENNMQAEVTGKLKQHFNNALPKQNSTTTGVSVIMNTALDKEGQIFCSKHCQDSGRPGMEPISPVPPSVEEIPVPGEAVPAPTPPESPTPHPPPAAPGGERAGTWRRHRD

BLK (human) = BLK (human) (UniProt P51451)
MARK1 (human) = MARK1 (human) (UniProt Q9P0L2)
LIMK1 (human) = LIMK1 (human) (UniProt P53667)
PASK (human) = PASK (human) (UniProt Q96RG2)
MARK2 (human) = MARK2 (human) (UniProt Q7KZI7)
PRKCB1 (human) = PRKCB1 (human) (UniProt P05771)
PRKCE (human) = PRKCE (human) (UniProt Q02156)
PRKCG (human) = PRKCG (human) (UniProt P05129)
CDK4 CCND1 (human) = CDK4 CCND1 (human) (UniProt P24385+P11802)
TNK2 (human) = TNK2 (human) (UniProt Q07912)
INSR (human) = INSR (human) (UniProt P06213)
CAMK4 (human) = CAMK4 (human) (UniProt Q16566)
Chain of CAMK4 (human) (Q16566 whole entry, looked up): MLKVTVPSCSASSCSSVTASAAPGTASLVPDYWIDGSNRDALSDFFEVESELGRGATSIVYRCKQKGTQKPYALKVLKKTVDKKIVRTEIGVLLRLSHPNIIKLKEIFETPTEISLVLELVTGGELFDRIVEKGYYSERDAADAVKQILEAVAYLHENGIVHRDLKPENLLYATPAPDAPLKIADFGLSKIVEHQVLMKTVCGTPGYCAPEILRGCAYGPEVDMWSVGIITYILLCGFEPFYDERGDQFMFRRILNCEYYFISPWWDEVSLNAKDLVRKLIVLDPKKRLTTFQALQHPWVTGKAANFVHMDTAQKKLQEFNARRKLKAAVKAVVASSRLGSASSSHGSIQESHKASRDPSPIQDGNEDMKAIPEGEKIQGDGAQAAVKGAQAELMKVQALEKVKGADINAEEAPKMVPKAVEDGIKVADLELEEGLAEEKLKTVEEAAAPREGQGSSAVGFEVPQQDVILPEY

NEK1 (human) = NEK1 (human) (UniProt Q96PY6)
TSSK1B (human) = TSSK1B (human) (UniProt Q9BXA7)
Chain of TSSK1B (human) (Q9BXA7 whole entry, looked up): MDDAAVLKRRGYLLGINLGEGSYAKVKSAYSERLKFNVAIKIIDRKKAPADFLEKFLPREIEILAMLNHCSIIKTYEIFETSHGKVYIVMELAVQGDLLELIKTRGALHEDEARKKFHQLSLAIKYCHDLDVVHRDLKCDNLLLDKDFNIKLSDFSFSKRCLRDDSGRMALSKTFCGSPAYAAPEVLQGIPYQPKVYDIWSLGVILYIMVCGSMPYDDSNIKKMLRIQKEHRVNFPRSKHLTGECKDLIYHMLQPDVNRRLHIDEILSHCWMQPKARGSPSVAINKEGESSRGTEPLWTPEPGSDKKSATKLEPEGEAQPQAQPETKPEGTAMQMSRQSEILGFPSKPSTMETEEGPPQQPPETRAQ

LRRK2 (human) = LRRK2 (human) (UniProt Q5S007)
LYN (human) = LYN (human) (UniProt P07948)
GRK6 (human) = GRK6 (human) (UniProt P43250)
MAP3K11 (human) = MAP3K11 (human) (UniProt Q16584)
GRK4 (human) = GRK4 (human) (UniProt P32298)

## COc1cc2nccc(Oc3ccc(NC(=S)NC(=O)c4ccccc4C)cc3)c2cc1OC
CSK (human)
  residual activity: 75.3%
CDK4 CCND3 (human)
  residual activity: 93.4%
STK4 (human)
  residual activity: 95.6%
ACVRL1 (human)
  residual activity: 91.7%
TAOK1 (human)
  residual activity: 71.3%
MAP3K9 (human)
  residual activity: 99.3%
PTK2B (human)
  residual activity: 93.4%
BMX (human)
  residual activity: 30.6%
NEK3 (human)
  residual activity: 99.6%
IKBKE (human)
  residual activity: 96.2%
CDK1 CCNA2 (human)
  residual activity: 91.6%
MAP3K3 (human)
  residual activity: 105%
AURKC (human)
  residual activity: 30.2%
PHKG2 (human)
  residual activity: 110%
STK11 (human)
  residual activity: 106%
DAPK2 (human)
  residual activity: 78.7%
DYRK4 (human)
  residual activity: 92.7%
STK25 (human)
  residual activity: 103%
STK10 (human)
  residual activity: 11.9%
EPHA5 (human)
  residual activity: 91%
NUAK2 (human)
  residual activity: 106%
PAK7 (human)
  residual activity: 102%
DCLK2 (human)
  residual activity: 91.5%
BLK (human)
  residual activity: 8.59%
MARK1 (human)
  residual activity: 91.4%
LIMK1 (human)
  residual activity: 82.7%
PASK (human)
  residual activity: 93.6%
MARK2 (human)
  residual activity: 82.3%
PRKCB1 (human)
  residual activity: 91.9%
PRKCE (human)
  residual activity: 99.7%
PRKCG (human)
  residual activity: 100%
CDK4 CCND1 (human)
  residual activity: 95.1%
TNK2 (human)
  residual activity: 26.9%
INSR (human)
  residual activity: 100%
CAMK4 (human)
  residual activity: 103%
NEK1 (human)
  residual activity: 96.7%
TSSK1B (human)
  residual activity: 83.6%
LRRK2 (human)
  residual activity: 94.4%
LYN (human)
  residual activity: 16.9% and 31.8%
GRK6 (human)
  residual activity: 91%
MAP3K11 (human)
  residual activity: 95.5%
GRK4 (human)
  residual activity: 95.9%

## CC(C)n1cnc2c(Nc3cccc(Cl)c3)nc(NCCO)nc21
CSK (human)
  residual activity: 98.2%
CDK4 CCND3 (human)
  residual activity: 93.3%
STK4 (human)
  residual activity: 93.1%
ACVRL1 (human)
  residual activity: 103%
TAOK1 (human)
  residual activity: 94.4%
MAP3K9 (human)
  residual activity: 27.2%
PTK2B (human)
  residual activity: 85%
BMX (human)
  residual activity: 92.5%
NEK3 (human)
  residual activity: 92.6%
IKBKE (human)
  residual activity: 97.6%
CDK1 CCNA2 (human)
  residual activity: 78.5%
MAP3K3 (human)
  residual activity: 97.4%
AURKC (human)
  residual activity: 92.1%
PHKG2 (human)
  residual activity: 93.2%
STK11 (human)
  residual activity: 76.1%
DAPK2 (human)
  residual activity: 92.8%
DYRK4 (human)
  residual activity: 91.2%
STK25 (human)
  residual activity: 92.9%
STK10 (human)
  residual activity: 86.9%
EPHA5 (human)
  residual activity: 91.7%
NUAK2 (human)
  residual activity: 89.8%
PAK7 (human)
  residual activity: 80.4%
DCLK2 (human)
  residual activity: 97.8%
BLK (human)
  residual activity: 91.2%
MARK1 (human)
  residual activity: 87.6%
LIMK1 (human)
  residual activity: 105%
PASK (human)
  residual activity: 92.7%
MARK2 (human)
  residual activity: 98.7%
PRKCB1 (human)
  residual activity: 102%
PRKCE (human)
  residual activity: 93.6%
PRKCG (human)
  residual activity: 93.6%
CDK4 CCND1 (human)
  residual activity: 77%
TNK2 (human)
  residual activity: 70.8%
INSR (human)
  residual activity: 97.3%
CAMK4 (human)
  residual activity: 101%
NEK1 (human)
  residual activity: 90.4%
TSSK1B (human)
  residual activity: 91.9%
LRRK2 (human)
  residual activity: 72.8%
LYN (human)
  residual activity: 80.2% and 94.6%
GRK6 (human)
  residual activity: 88.8%
MAP3K11 (human)
  residual activity: 51%
GRK4 (human)
  residual activity: 93.5%

## Nc1n[nH]c2nnc(-c3c(-c4ccccc4)nn4ccccc34)cc12
CSK (human)
  residual activity: 98%
CDK4 CCND3 (human)
  residual activity: 100%
STK4 (human)
  residual activity: 99.1%
ACVRL1 (human)
  residual activity: 106%
TAOK1 (human)
  residual activity: 95.8%
MAP3K9 (human)
  residual activity: 99.9%
PTK2B (human)
  residual activity: 95.4%
BMX (human)
  residual activity: 84.4%
NEK3 (human)
  residual activity: 82.7%
IKBKE (human)
  residual activity: 95.5%
CDK1 CCNA2 (human)
  residual activity: 101%
MAP3K3 (human)
  residual activity: 110%
AURKC (human)
  residual activity: 96.4%
PHKG2 (human)
  residual activity: 82.6%
STK11 (human)
  residual activity: 91.8%
DAPK2 (human)
  residual activity: 103%
DYRK4 (human)
  residual activity: 95.3%
STK25 (human)
  residual activity: 84.2%
STK10 (human)
  residual activity: 70.9%
EPHA5 (human)
  residual activity: 101%
NUAK2 (human)
  residual activity: 87.3%
PAK7 (human)
  residual activity: 98.2%
DCLK2 (human)
  residual activity: 100%
BLK (human)
  residual activity: 98.1%
MARK1 (human)
  residual activity: 98%
LIMK1 (human)
  residual activity: 98.2%
PASK (human)
  residual activity: 99.8%
MARK2 (human)
  residual activity: 104%
PRKCB1 (human)
  residual activity: 96.5%
PRKCE (human)
  residual activity: 72.7%
PRKCG (human)
  residual activity: 103%
CDK4 CCND1 (human)
  residual activity: 89.2%
TNK2 (human)
  residual activity: 82.7%
INSR (human)
  residual activity: 78.3%
CAMK4 (human)
  residual activity: 94.2%
NEK1 (human)
  residual activity: 109%
TSSK1B (human)
  residual activity: 102%
LRRK2 (human)
  residual activity: 91.8%
LYN (human)
  residual activity: 94.9% and 97.1%
GRK6 (human)
  residual activity: 99.3%
MAP3K11 (human)
  residual activity: 94.3%
GRK4 (human)
  residual activity: 103%

## CS(=O)c1ccc(-c2nc(-c3ccc(F)cc3)c(-c3ccncc3)[nH]2)cc1 (stereo not drawn)
CSK (human)
  residual activity: 87.7%
CDK4 CCND3 (human)
  residual activity: 105%
STK4 (human)
  residual activity: 101%
ACVRL1 (human)
  residual activity: 97.7%
TAOK1 (human)
  residual activity: 97.9%
MAP3K9 (human)
  residual activity: 95%
PTK2B (human)
  residual activity: 92.5%
BMX (human)
  residual activity: 94.4%
NEK3 (human)
  residual activity: 92.2%
IKBKE (human)
  residual activity: 98%
CDK1 CCNA2 (human)
  residual activity: 91.2%
MAP3K3 (human)
  residual activity: 102%
AURKC (human)
  residual activity: 98.5%
PHKG2 (human)
  residual activity: 102%
STK11 (human)
  residual activity: 81.6%
DAPK2 (human)
  residual activity: 102%
DYRK4 (human)
  residual activity: 99.2%
STK25 (human)
  residual activity: 111%
STK10 (human)
  residual activity: 89.1%
EPHA5 (human)
  residual activity: 89.5%
NUAK2 (human)
  residual activity: 131%
PAK7 (human)
  residual activity: 104%
DCLK2 (human)
  residual activity: 99.8%
BLK (human)
  residual activity: 102%
MARK1 (human)
  residual activity: 105%
LIMK1 (human)
  residual activity: 91.3%
PASK (human)
  residual activity: 99.1%
MARK2 (human)
  residual activity: 99.1%
PRKCB1 (human)
  residual activity: 74%
PRKCE (human)
  residual activity: 115%
PRKCG (human)
  residual activity: 90%
CDK4 CCND1 (human)
  residual activity: 105%
TNK2 (human)
  residual activity: 82.1%
INSR (human)
  residual activity: 88.9%
CAMK4 (human)
  residual activity: 101%
NEK1 (human)
  residual activity: 94.7%
TSSK1B (human)
  residual activity: 108%
LRRK2 (human)
  residual activity: 100%
LYN (human)
  residual activity: 91.8% and 99.1%
GRK6 (human)
  residual activity: 102%
MAP3K11 (human)
  residual activity: 96.4%
GRK4 (human)
  residual activity: 95.5%
